Series [1] in a line: in vitro permeability of a layer of CaCo-2 cells. The class given is in vitro ADME, human. The following applies: human, Caco-2; test conc 50 μM, assay duration 2 hr; read-out: mean A->B Papp (apparent permeability). (In general: Caco-2 monolayers are a common model of the intestinal barrier.)
For series [2], the system named is Mecp2 mice. Put plainly: respiratory function, plethysmograph. Type of series: in vivo. Conditions: IP or gavage, 0.1-20 mg/kg. The procedure:
Respiratory function was monitored in a plethysmograph (EMKA Technologies) for 30 minutes prior to and 1 hour after drug administration (one set of mice received IP injections and one set of mice received oral gavage). [N=2 mice/group at each dose and each administration route; for the vehicle controls, N=6 WT/group; N=6 Mecp2/group]. Data were analyzed using repeated measures analysis of variance.

Series [3] relates to mice. Put plainly: enhancement of learning in animals. The class given is in vivo. Conditions: compared with galantamine. From the text:
Potentiation of nicotinic receptors facilitates release of a number of different neurotransmitters including dopamine, glutamate, and GABA.

Series [4] relates to Mecp2 mice. Kind of series: locomotor activity, photobeam activity system. The following applies: 0.1-20 mg/kg. Type of series: in vivo. The procedure: Locomotor activity was monitored using methods described previously (Shaevitz et al. 2013 Genes Brain Behav. 12(7): 732-40. doi: […]). Mecp2 mutant males (between 1 and 3 months old) and females (between 3 and 6 months old) and age-matched controls were monitored for one-hour prior to and 12 hours after drug (or vehicle: 20% DMSO in saline) administration (one set of mice received IP injections and one set of mice received oral gavage) in doses that ranged from 0.1-20 mg/kg). Activity was measured across the 12-h dark cycle using a photobeam activity system (San Diego Instruments, San Diego, Calif., USA). Mice were placed individually into a cage (47×25×21 cm) inside a rectangular arena equipped with a 3×8 array of photobeams. The average number of ambulatory (two adjacent) and fine (repeated single) beam breaks per hour over the 12 h was compared. [N=2 mice/group at each dose and each administration route; for the vehicle controls, N=6 WT/group; N=6 Mecp2/group]. Data were analyzed using repeated measures analysis of variance.

The next series concerns CaCo-2 cells. Put plainly: in vitro permeability of a layer of CaCo-2 cells. Type of series: in vitro ADME, human. Conditions: based on in vitro CaCo-2 permeability.
For series [5], the system named is mice. Conditions: cited from earlier work; for adverse effects at high doses: 50-100 mg/kg.
A further series can be described thus: plasma stability. Type of series: in vitro ADME. Conditions: based on animal and in-vitro studies.
Another series has as its system nicotinic receptors. Put plainly: neuronal electrophysiological activity via nicotinic receptors. Conditions: galantamine positive allosteric modulatory site on nicotinic receptors.
Another series concerns the target cholinesterase. Conditions: cholinesterase inhibitor (Han et al 1991); cited from earlier work.
The next series deals with female Mecp2 mice. Kind of series: novel object recognition (NOR) task. The class given is in vivo. The following applies: Mecp2 females. The procedure:
Cognitive function was assessed using the novel object recognition (NOR) task using methods previously described (Schaevitz et al. 2013). […] Novel object memory was assessed. during three sessions. This task relies on the innate tendency of a mouse to explore unfamiliar objects vs. familiar objects. Testing was performed in an open-field arena. Twenty-four hours prior to training, mice were habituated to the arena for 10 min. Ninety minutes before training, the mice were administered drug or vehicle (0.1, 0.5, 1.0, 2.5 and 5.0 mg/kg IP). During training, mice were given 10 min to explore two identical Lego Objects (A +A). Short- and long-term object memory were assessed in two subsequent sessions (24 h after the completion of training) during which mice were given 10 min to explore the familiar (A) or a novel (B or C) object. The duration of exploration (defined as the mouse's snout or forelimbs physically touching or approaching within 1 cm of an object) of familiar and novel objects was measured. The amount of time spent exploring the novel object over the total time exploring both novel and familiar objects in each session was used to measure object memory. [N==6/dose of 0.1, 0.5 and 1.0; N=1/dose of 2.5 and 5.0 mg/kg; for vehicle N=6 WT and N=6 Mecp2 mice.]
For the novel Objection recognition task data, we created a matrix of all wildtype and. Mecp2 females who were administered the vehicle and a second matrix comparing Mecp2 females with and without the drug (all doses combined).

Where [6] appears, read: drug IP, all doses 0.1-5.0 mg/kg combined.

Like-named read-outs stand apart in the source and are kept apart here.

The term Papp A→B denotes the apparent permeability from the apical to the basolateral side of a cell layer. Take `CNC(=C[N+](=O)[O-])NCCSCc1ccc(CN(C)C)o1` [Ranitidine, reference compound]: the Papp A→B at 2 hr, 50 μM in [1] came to 11 nm/s.

Consider `CC(=O)CC(c1ccccc1)c1c(O)c2ccccc2oc1=O` (stereo not drawn) [Warfarin, reference compound], for which the apparent permeability from apical to basolateral (Papp A→B) at 2 hr, 50 μM in series [1] is 347 nm/s.

What is called IC50 is the concentration that gives 50% inhibition. With `CCCCNC(=O)O[C@H]1C=C[C@@]23CCN(C)Cc4ccc(OC)c(c42)O[C@H]3C1` [galantamine n-butylcarbamate], the respiratory activity result in the series with Mecp2 mice [2] is reported as “did not affect respiratory activity”. The enhancing learning result in the series with mice [3] was “effective in enhancing learning at lower doses than galantamine”. For the same compound, in the series with Mecp2 mice [4] (Mecp2 mice of both sexes and controls, from locomotor and respiratory tests), the safety and tolerability entry was “safe and well tolerated”. For the same compound, the locomotor activity entry in the series with Mecp2 mice [4] (Mecp2 mice of either sex, IP or gavage) is on record as “did not impair locomotor activity”. Also, the “ambulatory and fine motor movements” value in the series on Mecp2 mice [4] (all doses tested, IP or oral gavage) is listed as “not significant altered”. In addition, in the series on CaCo-2 cells, the predicted oral bioavailability is 80%. Moreover, the Papp A→B at 2 hr, 50 μM in series [1] worked out at 208 nm/s. In addition, the “adverse effects at high doses” value in the series on mice [5] (listed as Galantamine n-butylcarbamate) is “affects cardiac and motor functions”. Further, the “adverse effects at high doses” value in the series with mice [5] (listed as n-butylcarbamate) is “wobbly and off-balance with rapid heart rate still present at 4 hours, but were recovered at 24 hours”. Also, in the series with mice [5], the “lethality (no lethality up to dose)” value is given as greater than 100 mg/kg. In addition, the stability in plasma entry in “plasma stability” is “stable in plasma”. Also, in the series with nicotinic receptors, the neuronal electrophysiological activity result is on record as “enhances neuronal electrophysiological activity”. The IC50 at cholinesterase is 1.09 µM. In the series with female Mecp2 mice (setting [6]), the “NOR scores = or below 0.5 (share of mice that did not learn)” value was 65% and the “NOR scores above 0.5 (share of mice that learned)” value was found to be 35%. Moreover, the “NOR task performance versus vehicle” value in the series on female Mecp2 mice (Chi square p = 0.0321) is “improves memory for a novel object and cognitive performance”.

Values taken from patent US20170182058A1, “TREATMENT OF RETT SYNDROME” (priority 2014, published 2017).
